Reference: BindingDB's records for doi:10.1021/jm00115a012 (Research Biochemicals, 1991)

Experiments:
D(2) dopamine receptor [1] = molecular target: T1, D(2) dopamine receptor (Homo sapiens, UniProt P14416); experiment: ChEBML_59152
Excerpt: (§1) Binding affinity against dopamine receptor D2 by using [3H]spiperone as radioligand in caudate-putamen of monkey

D(1A) dopamine receptor = experiment: Binding affinity against dopamine receptor D1 by using [3H]-SCH- 23390 as radioligand in caudate-putamen of monkey
D(2) dopamine receptor [2] = molecular target: T1, D(2) dopamine receptor; experiment: as §1

T1 sequence (P14416 whole entry): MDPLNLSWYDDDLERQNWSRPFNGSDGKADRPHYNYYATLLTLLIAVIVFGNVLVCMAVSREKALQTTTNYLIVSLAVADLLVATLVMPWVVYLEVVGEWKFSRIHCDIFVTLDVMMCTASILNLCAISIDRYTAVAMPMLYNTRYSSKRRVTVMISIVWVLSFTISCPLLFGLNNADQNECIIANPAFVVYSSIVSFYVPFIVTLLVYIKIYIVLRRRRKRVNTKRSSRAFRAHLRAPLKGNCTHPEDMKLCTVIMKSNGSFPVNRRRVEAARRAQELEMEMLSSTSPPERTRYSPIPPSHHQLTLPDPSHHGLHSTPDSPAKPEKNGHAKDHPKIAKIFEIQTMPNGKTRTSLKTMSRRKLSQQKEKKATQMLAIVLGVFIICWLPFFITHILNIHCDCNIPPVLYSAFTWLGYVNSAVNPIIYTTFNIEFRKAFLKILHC

Ki (D(2) dopamine receptor [1]) [nM] | Ki (D(1A) dopamine receptor) [nM] | Ki (D(2) dopamine receptor [2]) [nM] | Structure (SMILES)
> 5000 | – | – | CN1CCc2cc(Br)c(O)cc2C(c2ccc(NC(=S)Nc3ccc4c(c3)C(=O)OC43c4ccc(O)cc4Oc4cc(O)ccc43)cc2)C1 (stereo not given)
1600 | – | – | CN1CCc2cc(Br)c(O)cc2C(c2ccc(N)cc2)C1 (stereo not given)
– | 10000 | – | O=C1OC2(c3ccc(O)cc3Oc3cc(O)ccc32)c2ccc(NC(=S)Nc3ccc(C4CNCCc5cc(O)c(O)cc54)cc3)cc21 (stereo not given)
– | – | 0.45 | CCCN(CCc1ccc(Nc2ccc([N+](=O)[O-])c3n[o+][n-]c23)cc1)C1CCc2c(O)cccc2C1 (stereo not given)
710 | – | – | CN1CCc2cc(Br)c(O)cc2C(c2ccc(Nc3ccc([N+](=O)[O-])c4n[o+][n-]c34)cc2)C1 (stereo not given)
4.8 | – | – | CCCN(CCc1ccc(NC(=S)Nc2ccc3c(c2)C(=O)OC32c3ccc(O)cc3Oc3cc(O)ccc32)cc1)[C@H]1CCc2c(O)cccc2C1
– | – | 110 | CCCN(CCc1ccc(NC(=S)Nc2ccc3c(c2)C(=O)OC32c3ccc(O)cc3Oc3cc(O)ccc32)cc1)[C@@H]1CCc2c(O)cccc2C1
– | 4900 | 170 | CCCN(CCc1ccc(C)cc1)[C@@H]1CCc2c(O)cccc2C1
– | 270 | 6.7 | CCCN(CCc1ccc(C)cc1)[C@H]1CCc2c(O)cccc2C1
– | 710 | 6.8 | CCCN(CCc1ccc(N)cc1)C1CCc2c(O)cccc2C1 (racemic)
7 | – | – | CCCN(CCc1ccc(NC(=S)Nc2ccc3c(c2)C(=O)OC32c3ccc(O)cc3Oc3cc(O)ccc32)cc1)C1CCc2c(O)cccc2C1 (racemic)

Structure (SMILES) | Ki (D(2) dopamine receptor [1]) [nM] | Ki (D(1A) dopamine receptor) [nM] | Ki (D(2) dopamine receptor [2]) [nM]
O=C(CCCN1CCC2(CC1)C(=O)N(CCc1ccc(Nc3ccc([N+](=O)[O-])c4n[o+][n-]c34)cc1)CN2c1ccccc1)c1ccc(F)cc1 | 0.66 | – | –
